Measurements: patent EP4603105A1, “PHARMACEUTICAL COMPOSITION CONTAINING CYCLIC COMPOUND HAVING SELECTIVE KRAS INHIBITORY EFFECT AGAINST HRAS AND NRAS” (CHUGAI SEIYAKU KABUSHIKI KAISHA, priority 2022, dated 2024)

What was measured:
[1] = test system: human lung cancer strain NCI-H441; type: cell-based
In short: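 Signal came from […] measured per well once the reagent was added. Beforehand, cells were cultured at 37°C and 5% carbon dioxide on a compound series serially diluted in dimethyl sulfoxide.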

[2] = biological target: GDP-bound NRAS wild-type protein (Homo sapiens, UniProt P01111); assay: Binding to NRAS by surface plasmon resonance (SPR), KD and KD ratio to KRAS; details: ratio of KD for GDP-bound NRAS wild-type protein to KD for KRAS
Sequence of GDP-bound NRAS wild-type protein (P01111 whole entry): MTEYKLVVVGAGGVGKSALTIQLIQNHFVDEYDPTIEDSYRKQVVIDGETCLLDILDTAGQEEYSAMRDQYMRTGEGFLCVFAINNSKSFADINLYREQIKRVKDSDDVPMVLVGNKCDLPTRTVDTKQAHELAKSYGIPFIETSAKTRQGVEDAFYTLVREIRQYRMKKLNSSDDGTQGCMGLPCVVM
In short: (§1)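 Measured at 30°C: SPR with GDP-loaded, E. coli-expressed biotin-Avi RAS captured (~100–300 RU), ascending 75 s compound injections, HBS pH 7.4 with GDP, MgCl2, 4% DMSO. KD from 1:1 fit.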

[3] = biological target: HRAS wild-type protein (Homo sapiens, UniProt P01112); assay: Binding to HRAS by surface plasmon resonance (SPR), KD and KD ratio to KRAS; details: ratio of KD for HRAS wild-type protein to KD for KRAS
Sequence of HRAS wild-type protein (P01112 whole entry): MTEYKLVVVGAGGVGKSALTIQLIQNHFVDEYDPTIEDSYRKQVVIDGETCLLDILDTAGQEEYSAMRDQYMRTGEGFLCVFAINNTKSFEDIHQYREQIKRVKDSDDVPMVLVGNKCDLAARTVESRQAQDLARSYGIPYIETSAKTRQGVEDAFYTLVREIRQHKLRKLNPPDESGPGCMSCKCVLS
In short: as §1

Compound: CCO[C@@H]1C[C@H]2C(=O)NC3(CC(F)(F)C3)C(=O)N(C)[C@@H](C3CCCC3)C(=O)N(C)[C@H](C(=O)N3CCOCC3)CC(=O)N(C)[C@@H](COC)C(=O)N[C@@H]([C@@H](C)CC)C(=O)N(C)CC(=O)N(C)[C@H]3CCCCCN(C3=O)[C@@H](Cc3ccc(C(F)(F)F)cc3)C(=O)N(C)CC(=O)N[C@@H](CCc3cc(F)c(C(F)(F)F)c(F)c3)C(=O)N2C1 [PP0843]
- IC50 [1]: 38.6 nM
- NRAS /KRAS [2]: B (a compound having 3 or more and less than 10 is denoted as B)
- HRAS /KRAS [3]: B (a compound having 3 or more and less than 10 is denoted as B)

Compound: CCO[C@@H]1C[C@H]2C(=O)NC3(CC(C)(C)C3)C(=O)N(C)[C@@H](C3CCCC3)C(=O)N(C)[C@H](C(=O)N3CCOCC3)CC(=O)N(C)[C@@H](COC)C(=O)N[C@@H]([C@@H](C)CC)C(=O)N(C)CC(=O)N(C)[C@H]3CCCCCN(C3=O)[C@@H](Cc3ccc(C(F)(F)F)cc3)C(=O)N(C)CC(=O)N[C@@H](CCc3cc(F)c(C(F)(F)F)c(F)c3)C(=O)N2C1 [PP0844]
- IC50 [1]: 50.2 nM
- NRAS /KRAS [2]: B (a compound having 3 or more and less than 10 is denoted as B)
- HRAS /KRAS [3]: B (a compound having 3 or more and less than 10 is denoted as B)

Compound: CC[C@H](C)[C@@H]1NC(=O)[C@H](COC)N(C)C(=O)C[C@@H](C(=O)N2CCOCC2)N(C)C(=O)[C@H](C2CCCC2)N(C)C(=O)C2(CCCC2)NC(=O)[C@@H]2CCCN2C(=O)[C@H](CCc2cc(F)c(C(F)(F)F)c(F)c2)NC(=O)CN(C)C(=O)[C@H](Cc2ccc(C(F)(F)F)cc2)N2CCCCC[C@@H](C2=O)N(C)C(=O)CN(C)C1=O [PP0845]
- IC50 [1]: 135 nM
- NRAS /KRAS [2]: B (a compound having 3 or more and less than 10 is denoted as B)
- HRAS /KRAS [3]: B (a compound having 3 or more and less than 10 is denoted as B)

Compound: CC[C@H](C)[C@@H]1NC(=O)[C@H](COC)N(C)C(=O)C[C@@H](C(=O)N2CCOCC2)N(C)C(=O)[C@H](C2CCCC2)N(C)C(=O)C2(CCCC2)NC(=O)[C@@H]2CC(F)(F)CN2C(=O)[C@H](CCc2cc(F)c(C(F)(F)F)c(F)c2)NC(=O)CN(C)C(=O)[C@H](Cc2ccc(C(F)(F)F)cc2)N2CCCCC[C@@H](C2=O)N(C)C(=O)CN(C)C1=O [PP0846]
- IC50 [1]: 22.2 nM
- NRAS /KRAS [2]: B (a compound having 3 or more and less than 10 is denoted as B)
- HRAS /KRAS [3]: B (a compound having 3 or more and less than 10 is denoted as B)

Compound: CC[C@H](C)[C@@H]1NC(=O)[C@H](COC)N(C)C(=O)C[C@@H](C(=O)N2CCOCC2)N(C)C(=O)[C@H](C2CCCC2)N(C)C(=O)C2(CCCC2)NC(=O)[C@@H]2C[C@H](O)CN2C(=O)[C@H](CCc2cc(F)c(C(F)(F)F)c(F)c2)NC(=O)CN(C)C(=O)[C@H](Cc2ccc(C(F)(F)F)cc2)N2CCCCC[C@@H](C2=O)N(C)C(=O)CN(C)C1=O [PP0847]
- IC50 [1]: 136 nM
- NRAS /KRAS [2]: B (a compound having 3 or more and less than 10 is denoted as B)
- HRAS /KRAS [3]: B (a compound having 3 or more and less than 10 is denoted as B)

Compound: CCO[C@@H]1C[C@H]2C(=O)NC3(CCC3)C(=O)N(C)[C@@H](C3CCCC3)C(=O)N(C)[C@H](C(=O)N3CCOCC3)CC(=O)N(C)[C@@H](COC)C(=O)N[C@@H]([C@@H](C)CC)C(=O)N(C)CC(=O)N(C)[C@H]3CCCCCN(C3=O)[C@@H](Cc3ccc(C(F)(F)F)cc3)C(=O)N(C)CC(=O)N[C@@H](CCc3ccc(C(F)(F)F)c(F)c3)C(=O)N2C1 [PP0848]
- IC50 [1]: 37.5 nM
- NRAS /KRAS [2]: B (a compound having 3 or more and less than 10 is denoted as B)
- HRAS /KRAS [3]: B (a compound having 3 or more and less than 10 is denoted as B)

Compound: CCO[C@@H]1C[C@H]2C(=O)NC3(CCC3)C(=O)N(C)[C@@H](C3CCCC3)C(=O)N(C)[C@H](C(=O)N3CCOCC3)CC(=O)N(C)[C@@H](COC)C(=O)N[C@@H]([C@@H](C)CC)C(=O)N(C)CC(=O)N(C)[C@H]3CCCCCN(C3=O)[C@@H](Cc3ccc(C(F)(F)F)cc3)C(=O)N(C)CC(=O)N[C@@H](CCc3ccc(C(F)(F)F)c(Cl)c3)C(=O)N2C1 [PP0849]
- IC50 [1]: 35.7 nM
- NRAS /KRAS [2]: B (a compound having 3 or more and less than 10 is denoted as B)
- HRAS /KRAS [3]: B (a compound having 3 or more and less than 10 is denoted as B)

Compound: CCO[C@@H]1C[C@H]2C(=O)NC3(CCC3)C(=O)N(C)[C@@H](C3CCCC3)C(=O)N(C)[C@H](C(=O)N3CCOCC3)CC(=O)N(C)[C@@H](COC)C(=O)N[C@@H]([C@@H](C)CC)C(=O)N(C)CC(=O)N(C)[C@H]3CCCCCN(C3=O)[C@@H](Cc3ccc(C(F)(F)F)cc3)C(=O)N(C)CC(=O)N[C@@H](CCc3ccc(C)cc3)C(=O)N2C1 [PP0850]
- IC50 [1]: 3090 nM
- NRAS /KRAS [2]: B (a compound having 3 or more and less than 10 is denoted as B)
- HRAS /KRAS [3]: B (a compound having 3 or more and less than 10 is denoted as B)

Compound: CCO[C@@H]1C[C@H]2C(=O)NC3(CCC3)C(=O)N(C)[C@@H](C3CCCC3)C(=O)N(C)[C@H](C(=O)N3CCOCC3)CC(=O)N(C)[C@@H](CC(F)F)C(=O)N[C@@H]([C@@H](C)CC)C(=O)N(C)CC(=O)N(C)[C@H]3CCCCCN(C3=O)[C@@H](Cc3ccc(C(F)(F)F)cc3)C(=O)N(C)CC(=O)N[C@@H](CCc3cc(F)c(C(F)(F)F)c(F)c3)C(=O)N2C1 [PP0854]
- IC50 [1]: 21.7 nM
- NRAS /KRAS [2]: B (a compound having 3 or more and less than 10 is denoted as B)
- HRAS /KRAS [3]: B (a compound having 3 or more and less than 10 is denoted as B)

Compound: CCO[C@@H]1C[C@H]2C(=O)NC3(CCC3)C(=O)N(C)[C@@H](C3CCCC3)C(=O)N(C)[C@H](C(=O)N3CCOCC3)CC(=O)N(C)[C@@H](Cc3cccc(Cl)c3)C(=O)N[C@@H]([C@@H](C)CC)C(=O)N(C)CC(=O)N(C)[C@H]3CCCCCN(C3=O)[C@@H](Cc3ccc(C(F)(F)F)cc3)C(=O)N(C)CC(=O)N[C@@H](CCc3cc(F)c(C(F)(F)F)c(F)c3)C(=O)N2C1 [PP0857]
- IC50 [1]: 111 nM
- NRAS /KRAS [2]: B (a compound having 3 or more and less than 10 is denoted as B)
- HRAS /KRAS [3]: B (a compound having 3 or more and less than 10 is denoted as B)

Compound: CCO[C@@H]1C[C@H]2C(=O)NC3(CCC3)C(=O)N(C)[C@@H](C3CCCC3)C(=O)N(C)[C@H](C(=O)N3CCOCC3)CC(=O)N(C)[C@@H](COC)C(=O)N[C@@H]([C@@H](C)CC)C(=O)NCC(=O)N(C)[C@H]3CCCCCN(C3=O)[C@@H](Cc3ccc(C(F)(F)F)cc3)C(=O)N(C)CC(=O)N[C@@H](CCc3cc(F)c(C(F)(F)F)c(F)c3)C(=O)N2C1 [PP0858]
- IC50 [1]: 52.5 nM
- NRAS /KRAS [2]: B (a compound having 3 or more and less than 10 is denoted as B)
- HRAS /KRAS [3]: B (a compound having 3 or more and less than 10 is denoted as B)

Compound: CCO[C@@H]1C[C@H]2C(=O)NC3(CCC3)C(=O)N(C)[C@@H](C3CCCC3)C(=O)N(C)[C@H](C(=O)N(C)C)CC(=O)N(C)[C@@H](COC)C(=O)N[C@@H]([C@@H](C)CC)C(=O)NCC(=O)N(C)[C@H]3CCCCCN(C3=O)[C@@H](Cc3ccc(C(F)(F)F)cc3)C(=O)N(C)CC(=O)N[C@@H](CCc3cc(F)c(C(F)(F)F)c(F)c3)C(=O)N2C1 [PP0859]
- IC50 [1]: 22.4 nM
- NRAS /KRAS [2]: B (a compound having 3 or more and less than 10 is denoted as B)
- HRAS /KRAS [3]: B (a compound having 3 or more and less than 10 is denoted as B)
